# Laboratory results from ChEMBL document CHEMBL4118193, “1,2,3,4,6-Penta-O-galloyl-β-d-glucose suppresses colon cancer through induction of tumor suppressor” (Bioorg Med Chem Lett, 2018).
# Activity calls are given as the source filed them. The rule behind the calls is not given here.
# Experiments:
# HCT-116 [1] = assay: Induction of apoptosis in human HCT116 cells assessed as in p21 protein level at 5 uM after 48 hrs by Western blot method relative to beta-actin; format: functional
# HCT-116 [2] = assay: Induction of apoptosis in human HCT116 cells assessed as Bcl-2 protein level at 10 uM after 48 hrs by Western blot method relative to beta-actin; format: functional
# HT-29 [3] = assay: Induction of apoptosis in human HT-29 cells assessed as CDK2 protein level at 2.5 uM after 48 hrs by Western blot method relative to beta-actin; format: functional
# HCT-116 [4] = assay: Cell cycle arrest in human HCT116 cells assessed as accumulation at G2/M phase at 2.5 uM after 48 hrs (reference value: 21.5%); format: functional
# HCT-116 [5] = assay: Induction of apoptosis in human HCT116 cells assessed as p21 protein level at 2.5 uM after 48 hrs by Western blot method relative to beta-actin; format: functional
# HT-29 [6] = assay: Induction of apoptosis in human HT-29 cells assessed as CDK2 protein level at 10 uM after 48 hrs by Western blot method relative to beta-actin; format: functional
# HCT-116 [7] = assay: Induction of apoptosis in human HCT116 cells assessed as early apoptotic cells at 5 uM after 48 hrs by Annexin-V and dead cell assay (reference value: 1.70%); format: functional
# HT-29 [8] = assay: Induction of apoptosis in human HT-29 cells assessed as increase in caspase-3/7 activity at 1 to 10 uM measured after 48 hrs by Caspase-Glo 3/7 assay; format: functional, cell-based
# HT-29 [9] = assay: Induction of apoptosis in human HT-29 cells assessed as cleaved caspase-3 protein level at 1 uM after 48 hrs by Western blot method relative to caspase-3; format: functional
# HCT-116 [10] = assay: Cell cycle arrest in human HCT116 cells assessed as accumulation at G2/M phase at 10 uM after 48 hrs (reference value: 21.5%); format: functional
# HCT-116 [11] = assay: Cell cycle arrest in human HCT116 cells assessed as accumulation at G0/G1 phase at 1 uM after 48 hrs (reference value: 38.5%); format: functional
# HCT-116 [12] = assay: Induction of apoptosis in human HCT116 cells assessed as caspase-3 protein level at 2.5 uM after 48 hrs by Western blot method relative to beta-actin; format: functional
# HCT-116 [13] = assay: Induction of apoptosis in human HCT116 cells assessed as live cells at 2.5 uM after 48 hrs by Annexin-V and dead cell assay (reference value: 96.75%); format: functional
# HT-29 [14] = assay: Induction of apoptosis in human HT-29 cells assessed as in p53 protein level at 2.5 uM after 48 hrs by Western blot method relative to beta-actin; format: functional
# HCT-116 [15] = assay: Cell cycle arrest in human HCT116 cells assessed as accumulation at S phase at 5 uM after 48 hrs (reference value: 10.9%); format: functional
# HT-29 [16] = assay: Induction of apoptosis in human HT-29 cells assessed as cleaved caspase-3 protein level at 5 uM after 48 hrs by Western blot method relative to caspase-3; format: functional
# HCT-116 [17] = assay: Induction of apoptosis in human HCT116 cells assessed as CDK2 protein level at 5 uM after 48 hrs by Western blot method relative to beta-actin; format: functional
# HT-29 [18] = assay: Cell cycle arrest in human HT-29 cells assessed as accumulation at S phase at 1 uM after 48 hrs (reference value: 9.7%); format: functional
# HT-29 [19] = assay: Cell cycle arrest in human HT-29 cells assessed as accumulation at G0/G1 phase at 5 uM after 48 hrs (reference value: 53.9%); format: functional
# HCT-116 [20] = assay: Antiproliferative activity against human HCT116 cells at 1 to 10 uM after 48 hrs by CytoTox-96 non-radioactive assay; format: functional, cell-based
# HT-29 [21] = assay: Cell cycle arrest in human HT-29 cells assessed as accumulation at G0/G1 phase at 10 uM after 48 hrs (reference value: 53.9%); format: functional
# HCT-116 [22] = assay: Induction of apoptosis in human HCT116 cells assessed as early apoptotic cells at 10 uM after 48 hrs by Annexin-V and dead cell assay (reference value: 1.70%); format: functional
# HCT-116 [23] = assay: Induction of apoptosis in human HCT116 cells assessed as p21 protein level at 10 uM after 48 hrs by Western blot method relative to beta-actin; format: functional
# HCT-116 [24] = assay: Induction of apoptosis in human HCT116 cells assessed as DNA fragmentation at 1 to 10 uM after 48 hrs by ELISA; format: functional, cell-based
# HT-29 [25] = assay: Induction of apoptosis in human HT-29 cells assessed as cleaved caspase-3 protein level at 10 uM after 48 hrs by Western blot method relative to caspase-3; format: functional
# HCT-116 [26] = assay: Induction of apoptosis in human HCT116 cells assessed as Bcl-2 protein level at 2.5 uM after 48 hrs by Western blot method relative to beta-actin; format: functional
# HT-29 [27] = assay: Induction of apoptosis in human HT-29 cells assessed as Bcl-2 protein level at 1 uM after 48 hrs by Western blot method relative to beta-actin; format: functional
# HCT-116 [28] = assay: Induction of apoptosis in human HCT116 cells assessed as Bcl-2 protein level at 1 uM after 48 hrs by Western blot method relative to beta-actin; format: functional
# HT-29 [29] = assay: Cell cycle arrest in human HT-29 cells assessed as accumulation at G0/G1 phase at 1 uM after 48 hrs (reference value: 53.9%); format: functional
# HCT-116 [30] = assay: Anticlonogenic activity against human HCT116 cells assessed as inhibition of colony formation after 4 to 5 days by crystal violet staining-based assay; format: functional, cell-based
# HT-29 [31] = assay: Induction of apoptosis in human HT-29 cells assessed as in p53 protein level at 10 uM after 48 hrs by Western blot method relative to beta-actin; format: functional
# HCT-116 [32] = assay: Induction of apoptosis in human HCT116 cells assessed as necrotic cells at 2.5 uM after 48 hrs by Annexin-V and dead cell assay (reference value: 0.10%); format: functional
# HT-29 [33] = assay: Induction of apoptosis in human HT-29 cells assessed as cyclin E protein level at 2.5 uM after 48 hrs by Western blot method relative to beta-actin; format: functional
# HCT-116 [34] = assay: Induction of apoptosis in human HCT116 cells assessed as late apoptotic cells at 10 uM after 48 hrs by Annexin-V and dead cell assay (reference value: 1.45%); format: functional
# HT-29 [35] = assay: Cytotoxicity against human HT-29 cells at 10 uM after 48 hrs by CytoTox-96 non-radioactive assay; format: functional, cell-based
# HT-29 [36] = assay: Induction of apoptosis in human HT-29 cells assessed as p21 protein level at 1 uM after 48 hrs by Western blot method relative to beta-actin; format: functional
# HT-29 [37] = assay: Induction of apoptosis in human HT-29 cells assessed as caspase-3 protein level at 1 uM after 48 hrs by Western blot method relative to beta-actin; format: functional
# HT-29 [38] = assay: Induction of apoptosis in human HT-29 cells assessed as Bcl-2 protein level at 5 uM after 48 hrs by Western blot method relative to beta-actin; format: functional
# HT-29 [39] = assay: Antiproliferative activity against human HT-29 cells at 1 to 10 uM after 48 hrs by CytoTox-96 non-radioactive assay; format: functional, cell-based
# HCT-116 [40] = assay: Induction of apoptosis in human HCT116 cells assessed as early apoptotic cells at 1 uM after 48 hrs by Annexin-V and dead cell assay (reference value: 1.70%); format: functional
structure (smiles),measurement,setting,value
O=C(OC[C@H]1O[C@@H](OC(=O)c2cc(O)c(O)c(O)c2)[C@H](OC(=O)c2cc(O)c(O)c(O)c2)[C@@H](OC(=O)c2cc(O)c(O)c(O)c2)[C@@H]1OC(=O)c1cc(O)c(O)c(O)c1)c1cc(O)c(O)c(O)c1 [PENTAGALLOYL GLUCOSE],fold change (FC),HCT-116 [1],0.7
same,fold change (FC),HCT-116 [2],0.7
same,fold change (FC),HT-29 [3],0.9
same,Activity,HCT-116 [4],20.5%
same,fold change (FC),HCT-116 [5],1.4
same,fold change (FC),HT-29 [6],0.8
same,Activity,HCT-116 [7],1.85%
same,Activity,HT-29 [8],Active
same,fold change (FC),HT-29 [9],3
same,Activity,HCT-116 [10],18.1%
same,Activity,HCT-116 [11],37.5%
same,fold change (FC),HCT-116 [12],109.9
same,Activity,HCT-116 [13],97.55%
same,fold change (FC),HT-29 [14],4.4
same,Activity,HCT-116 [15],17.8%
same,fold change (FC),HT-29 [16],7
same,fold change (FC),HCT-116 [17],0.4
same,Activity,HT-29 [18],12.7%
same,Activity,HT-29 [19],43.9%
same,Activity,HCT-116 [20],Active
same,Activity,HT-29 [21],37.3%
same,Activity,HCT-116 [22],3.2%
same,fold change (FC),HCT-116 [23],1.6
same,Activity,HCT-116 [24],Active
same,fold change (FC),HT-29 [25],5.7
same,fold change (FC),HCT-116 [26],1.8
same,fold change (FC),HT-29 [27],0.7
same,fold change (FC),HCT-116 [28],1.3
same,Activity,HT-29 [29],51.3%
same,Activity,HCT-116 [30],Dose-dependent effect
same,fold change (FC),HT-29 [31],6
same,Activity,HCT-116 [32],0.1%
same,fold change (FC),HT-29 [33],0.9
same,Activity,HCT-116 [34],6.1%
same,Activity,HT-29 [35],Active
same,fold change (FC),HT-29 [36],2.4
same,fold change (FC),HT-29 [37],1.6
same,fold change (FC),HT-29 [38],0.4
same,Activity,HT-29 [39],Active
same,Activity,HCT-116 [40],1%
